Results on 21 compounds are retold here after patent US11091501B2, “Heterocyclic compounds as RSV inhibitors” (Enanta Pharmaceuticals, Inc., priority 2017, dated 2021).

This test relates to Human RSV-A (“Long” strain). In words: RSV in vitro cytoprotection assay (CPE, ATPlite) in HEp-2 cells. It is filed as cell-based. Conditions: human respiratory syncytial virus, 96 h; HEp-2 cells, 4-day incubation, ATPlite readout; read-out: Human RSV-A (“Long” strain) EC50. The source says: RSV is a single stranded negative sense RNA virus that causes respiratory tract infections which can be dangerous to infants, the elderly, and immunosuppressed individuals. Currently there is no vaccine, and therapeutic options are both costly and of limited effectiveness. These approved treatments are Ribavirin, and Palivizumab/Synagis (a monoclonal antibody). RSV has two genotypes, A and B, which differ primarily in the structure of the virus' surface “G” attachment protein. Our current primary screen focuses on RSV-A and uses an in vitro cytoprotection assay where compounds are added in 2-fold dilutions to cells which are then subjected to fully replicative viral particles. Cell viability is measured several days later along with separate measurements of compound cytotoxicity. This report focuses on the results of our most recent screening of compounds.
HEp-2 cells, (originally derived from tumors grown in irradiated-cortisonised weanling rats that had been injected with epidermoid carcinoma tissue from a person's larynx, but later found to be indistinguishable from HeLa cells by PCR DNA analysis), were used for the culturing of genotype A, “Long” strain RSV. Flasks were inoculated with RSV and viral stocks were collected once cytopathic effect (CPE) was greater than 90%. Viral stocks in 25% sucrose media were snap frozen using liquid nitrogen to increase viral stability. Viral stock titers were quantified by tissue culture infectious dose 50% (TCID50) using 8,000 cells per well and 3-fold viral dilutions across a 96-well plate, cultured for 4 days.
Following extensive parameter testing, the final assay is run as follows: HEp-2 cells are seeded into the inner 60 wells of a 96-well plate at 8,000 cells per well in a volume of 50 μL using Growth Media (DMEM without phenol red, 1% L-Glut, 1% Penn/Strep, 1% nonessential amino acids, 10% FBS). 2-Fold serial dilutions of control and test compounds are added to the wells in duplicate in a total volume of 25 μL. Viral stock is then added to the wells in a volume of […] the total volume of each well to 100 μL. Each 96-well plate has a control column of 6 wells with cells and virus but no compound (negative control, max CPE), a column with cells but no compound or virus (positive control, minimum CPE), and a column with no cells or virus or compound (background plate/reagent control). The control wells with cells but no virus are given an additional 25 uL of growth media containing an equal quantity of sucrose as those wells receiving the viral stock in order to keep consistent in media and volume conditions. The outer wells of the plate are filled with 125 μL of growth media to act as a thermal and evaporative moat around the test wells. Following a 4-day incubation period, the plates are read using ATPlite (50 uL added per well), which quantifies the amount of ATP (a measure of cell health) present in each well. Assay plates are read using the Envision luminometer. In parallel, cytotoxicity is examined on an additional 96-well plate treated in an identical manner, but substituting the 25 μL of viral stock for 25 μL of growth media. […] EC50 ranges are as follows: A<0.01 μM; B 0.01-0.05 μM; C>0.05 μM.
(In general: In ATP-based viability assays light output follows the ATP content of the culture.)
As for `O=C(Nc1ccc(C(=O)N2CCc3c(sc(C(=O)Nc4c(F)cc(F)cc4F)c3F)-c3ccccc32)cc1)c1cccnc1N1CC2(CCOCC2)C1` [Example 89], the EC50 (in general, the midpoint of the concentration-response curve) is less than 0.01 µM.
The result for `O=C(Nc1ccc(C(=O)N2CCc3c(sc(C(=O)Nc4c(Cl)cccc4Cl)c3F)-c3ccccc32)cc1)c1cccnc1N1CC2(CCOCC2)C1` [Example 90] reads 0.01 to 0.05 µM; that for `Cc1cccc(F)c1NC(=O)c1sc2c(c1F)CCN(C(=O)c1ccc(NC(=O)c3cccnc3N3CC4(CCOCC4)C3)cc1)c1ccccc1-2` [Example 91], less than 0.01 µM; that for `O=C(Nc1ccc(C(=O)N2CCc3c(sc(-c4nc5ccccc5[nH]4)c3F)-c3ccccc32)cc1)c1cccnc1N1CC2(CCOCC2)C1` [Example 92], less than 0.01 µM.
Take `Cc1cnc(N2CC3(CCOCC3)C2)c(C(=O)Nc2ccc(C(=O)N3CCc4c(sc(C(=O)Nc5c(F)cccc5F)c4F)-c4ccccc43)cc2)c1` [Example 93]: the EC50 was less than 0.01 µM.
The result for `Cc1cnc(N2CC3(CCOCC3)C2)c(C(=O)Nc2ccc(C(=O)N3CCc4c(sc(C(=O)Nc5c(F)cc(F)cc5F)c4F)-c4ccccc43)cc2)c1` [Example 94] reads less than 0.01 µM.
Turning to `Cc1cnc(N2CC3(CCOCC3)C2)c(C(=O)Nc2ccc(C(=O)N3CCc4c(sc(C(=O)Nc5c(C)cccc5F)c4F)-c4ccccc43)cc2)c1` [Example 95], the EC50 is less than 0.01 µM.
Consider `O=C(Nc1c(F)cccc1F)c1cc2c(o1)-c1ccc(F)cc1N(C(=O)c1ccc(NC(=O)c3cccnc3N3CC4(CCOCC4)C3)cc1)CC2` [Example 99], for which the EC50 is less than 0.01 µM.
Take `O=C(Nc1c(F)cc(F)cc1F)c1cc2c(o1)-c1ccc(F)cc1N(C(=O)c1ccc(NC(=O)c3cccnc3N3CC4(CCOCC4)C3)cc1)CC2` [Example 100]: the EC50 was less than 0.01 µM.
Consider `O=C(Nc1c(F)cccc1F)c1nc2c(s1)-c1ccccc1N(C(=O)c1ccc(NC(=O)c3cccnc3N3CC4(CCOCC4)C3)cc1)CC2` [Example 104], for which the EC50 was less than 0.01 µM.
Next, `O=C(Nc1c(F)cc(F)cc1F)c1nc2c(s1)-c1ccccc1N(C(=O)c1ccc(NC(=O)c3cccnc3N3CC4(CCOCC4)C3)cc1)CC2` [Example 105]: 0.01 to 0.05 µM; `O=C(Nc1c(F)cc(F)cc1Cl)c1nc2c(s1)-c1ccccc1N(C(=O)c1ccc(NC(=O)c3cccnc3N3CC4(CCOCC4)C3)cc1)CC2` [Example 106]: 0.01 to 0.05 µM.
`O=C(Nc1ccc(C(=O)N2CCc3nc(-c4nc5ccccc5[nH]4)sc3-c3ccccc32)cc1)c1cccnc1N1CC2(CCOCC2)C1` [Example 107]: the EC50 was 0.01 to 0.05 µM.
Next, `O=C(Nc1c(F)cccc1F)c1nc2c(o1)-c1ccccc1N(C(=O)c1ccc(NC(=O)c3cccnc3N3CC4(CCOCC4)C3)cc1)CC2` [Example 108]: 0.01 to 0.05 µM; `O=C(Nc1ccc(C(=O)N2CCc3nc(-c4nc5ccccc5[nH]4)oc3-c3ccccc32)cc1)c1cccnc1N1CC2(CCOCC2)C1` [Example 109]: 0.01 to 0.05 µM; `Cc1ccc(C(=O)Nc2ccc(C(=O)N3CCc4cc(C(=O)Nc5c(F)cccc5F)sc4-c4ccc(F)cc43)cc2)c(N2CC3(CCOCC3)C2)n1` [Example 110]: less than 0.01 µM.
Consider `Cc1ccc(C(=O)Nc2ccc(C(=O)N3CCc4cc(C(=O)Nc5c(F)cc(F)cc5F)sc4-c4ccc(F)cc43)cc2)c(N2CC3(CCOCC3)C2)n1` [Example 111], for which the concentration giving a half-maximal response (EC50) is less than 0.01 µM.
With `Cc1ccc(C(=O)Nc2ccc(C(=O)N3CCc4cc(C(=O)Nc5c(C)cccc5F)sc4-c4ccc(F)cc43)cc2)c(N2CC3(CCOCC3)C2)n1` [Example 112], the EC50 is less than 0.01 µM.
As for `Cc1ccc(C(=O)Nc2ccc(C(=O)N3CCc4cc(C(=O)Nc5c(F)cccc5C(F)(F)F)sc4-c4ccc(F)cc43)cc2)c(N2CC3(CCOCC3)C2)n1` [Example 113], the concentration giving a half-maximal response (EC50) was less than 0.01 µM.
Regarding `Cc1ccc(C(=O)Nc2ccc(C(=O)N3CCc4cc(C(=O)Nc5ccccc5F)sc4-c4ccc(F)cc43)cc2)c(N2CC3(CCOCC3)C2)n1` [Example 114], the concentration giving a half-maximal response (EC50) was less than 0.01 µM.
Next, `Cc1ccc(C(=O)Nc2ccc(C(=O)N3CCc4cc(C(=O)Nc5ncccc5F)sc4-c4ccc(F)cc43)cc2)c(N2CC3(CCOCC3)C2)n1` [Example 115]: less than 0.01 µM.
